System: Trypanosoma brucei rhodesiense STIB900
Test: Activity against Trypanosoma brucei rhodesiense STIB900 (Alamar Blue assay)
Format: cell-based
Details: Trypanosoma brucei, 70 h, bloodstream forms of T. b. rhodesiense STIB 900, 70 h incubation
Procedure: Activity Against Trypanosoma brucei Rhodesiense STIB900
This stock was isolated in 1982 from a human patient in Tanzania and after several mouse passages cloned and adapted to axenic culture conditions (Baltz, T., D. Baltz, C. Giroud, and J. Crockett. 1985, Cultivation in a semi-defined medium of animal infective forms of Trypanosoma brucei, T. equiperdum, T. evansi, T. rhodesiense and T. gambiense. EMBO Journal 4:1273-1277). Minimum Essential Medium (50 μl) supplemented with 25 mM HEPES, 1 g/l additional glucose, 1% MEM non-essential amino acids (100×), 0.2 mM 2-mercaptoethanol, 1 mM Na-pyruvate and 15% heat inactivated horse serum was added to each well of a 96-well microtiter plate. Serial drug dilutions of eleven 3-fold dilution steps covering a range from […] were prepared. Then 4×10^3 bloodstream forms of T. b. rhodesiense STIB 900 in 50 μl was added to each well and the plate incubated at 37° C. under a 5% CO2 atmosphere for 70 h. 10 μl Alamar Blue (resazurin, 12.5 mg in 100 ml double-distilled water) was then added to each well and incubation continued for a further 2-4 h (Räz, B., M. Iten, Y. Grether-Buhler, R. Kaminsky, and R. Brun. 1997, The Alamar Blue assay to determine drug sensitivity of African trypanosomes (T.b. rhodesiense and T.b. gambiense) in vitro. Acta Trop 68:139-47). Then the plates were read with a Spectramax Gemini XS microplate fluorometer (Molecular Devices Cooperation, Sunnyvale, Calif., USA) using an excitation wave length of 536 nm and an emission wave length of 588 nm. The IC50 values were calculated by linear regression (Huber, W. Koella, J. C. 1993, A comparison of the three methods of estimating EC50 in studies of drug resistance of malaria parasites. Acta Trop. 55, 257-261) from the sigmoidal dose inhibition curves using SoftmaxPro software (Molecular Devices Cooperation, Sunnyvale, Calif., USA). Melarsoprol is used as control.

Compound	IC50 [µM]
Cc1cc(C(=O)N[C@@H](Cc2ccc(OC(F)(F)F)c(Cl)c2)C(=O)NC2(C#N)CC2)n(C)n1 [Example 3, (S)—N-(3-(3-chloro-4-(trifluoromethoxy)phenyl)-1-(1-cyanocyclopropylamino)-1-oxopropan-2-yl)-1,3-dimethyl-1H-pyrazole-5-carboxamide]	0.071
Cn1nc(C2CC2)cc1C(=O)N[C@@H](Cc1ccc(OC(F)(F)F)c(Cl)c1)C(=O)NC1(C#N)CC1 [Example 4, (S)—N-(3-(3-chloro-4-(trifluoromethoxy)phenyl)-1-(1-cyanocyclopropylamino)-1-oxopropan-2-yl)-3-cyclopropyl-1-methyl-1H-pyrazole-5-carboxamide]	0.005
N#CC1(NC(=O)[C@H](Cc2ccc(OC(F)(F)F)c(Cl)c2)NC(=O)c2ccn(-c3ccc(F)cc3)n2)CC1 [Example 6, (S)—N-(3-(3-chloro-4-(trifluoromethoxy)phenyl)-1-(1-cyanocyclopropylamino)-1-oxopropan-2-yl)-1-(4-fluorophenyl)-1H-pyrazole-3-carboxamide]	0.05
Cn1nc(-c2ccccc2)cc1C(=O)N[C@@H](Cc1ccc(OC(F)(F)F)c(Cl)c1)C(=O)NC1(C#N)CC1 [Example 7, (S)—N-(3-(3-chloro-4-(trifluoromethoxy)phenyl)-1-(1-cyanocyclopropylamino)-1-oxopropan-2-yl)-1-methyl-3-phenyl-1H-pyrazole-5-carboxamide]	0.02
Cc1oc(-c2ccc(Cl)cc2)nc1C(=O)N[C@@H](Cc1ccc(OC(F)(F)F)c(Cl)c1)C(=O)NC1(C#N)CC1 [Example 8, (S)—N-(3-(3-chloro-4-(trifluoromethoxy)phenyl)-1-(1-cyanocyclopropylamino)-1-oxopropan-2-yl)-2-(4-chlorophenyl)-5-methyloxazole-4-carboxamide]	0.068
N#CC1(NC(=O)[C@H](Cc2ccc(OC(F)(F)F)c(Cl)c2)NC(=O)c2cnn(-c3ccc(F)cc3)n2)CC1 [Example 9, (S)—N-(3-(3-chloro-4-(trifluoromethoxy)phenyl)-1-(1-cyanocyclopropylamino)-1-oxopropan-2-yl)-2-(4-fluorophenyl)-2H-1,2,3-triazole-4-carboxamide]	0.009
COc1ccc(-c2cc(C(=O)N[C@@H](Cc3ccc(OC(F)(F)F)c(Cl)c3)C(=O)NC3(C#N)CC3)[nH]n2)cc1 [Example 12, (S)—N-(3-(3-chloro-4-(trifluoromethoxy)phenyl)-1-(1-cyanocyclopropylamino)-1-oxopropan-2-yl)-3-(4-methoxyphenyl)-1H-pyrazole-5-carboxamide]	0.162
N#CC1(NC(=O)[C@H](Cc2ccc(OC(F)(F)F)c(Cl)c2)NC(=O)c2cc(-c3ccccc3)no2)CC1 [Example 13, (S)—N-(3-(3-chloro-4-(trifluoromethoxy)phenyl)-1-(1-cyanocyclopropylamino)-1-oxopropan-2-yl)-3-phenylisoxazole-5-carboxamide]	0.003
N#CC1(NC(=O)[C@H](Cc2ccc(OC(F)(F)F)c(Cl)c2)NC(=O)c2cnn(-c3ccccc3)n2)CC1 [Example 16, (S)—N-(3-(3-chloro-4-(trifluoromethoxy)phenyl)-1-(1-cyanocyclopropylamino)-1-oxopropan-2-yl)-2-phenyl-2H-1,2,3-triazole-4-carboxamide]	0.005
Cn1nc(-c2cccc(Cl)c2)cc1C(=O)N[C@@H](Cc1ccc(OC(F)(F)F)c(Cl)c1)C(=O)NC1(C#N)CC1 [Example 17, (S)—N-(3-(3-chloro-4-(trifluoromethoxy)phenyl)-1-(1-cyanocyclopropylamino)-1-oxopropan-2-yl)-3-(3-chlorophenyl)-1-methyl-1H-pyrazole-5-carboxamide]	0.413
N#CC1(NC(=O)[C@H](Cc2ccc(OC(F)(F)F)c(Cl)c2)NC(=O)c2noc(-c3cccc(Cl)c3)n2)CC1 [Example 18, (S)—N-(3-(3-chloro-4-(trifluoromethoxy)phenyl)-1-(1-cyanocyclopropylamino)-1-oxopropan-2-yl)-5-(3-chlorophenyl)-1,2,4-oxadiazole-3-carboxamide]	0.007
N#CC1(NC(=O)[C@H](Cc2ccc(OC(F)(F)F)c(Cl)c2)NC(c2nnc(-c3ccc(Br)cc3)o2)C(F)(F)F)CC1 (stereo partly drawn) [Example 19, (2S)-2-[[1-[5-(4-bromophenyl)-1,3,4-oxadiazol-2-yl]-2,2,2-trifluoroethyl]amino]-3-[3-chloro-4-(trifluoromethoxy)phenyl]-N-(1-cyanocyclopropyl)propanamide]	10.1
N#CC1(NC(=O)[C@H](Cc2ccc(OC(F)(F)F)c(Cl)c2)NC(=O)c2cnn(-c3ccc(Cl)cc3)n2)CC1 [Example 24, 2-(4-chlorophenyl)-N-[(2S)-3-[3-chloro-4-(trifluoromethoxy)phenyl]-1-[(1-cyanocyclopropyl)amino]-1-oxopropan-2-yl]triazole-4-carboxamide]	0.022
N#CC1(NC(=O)[C@H](Cc2cccc(Cl)c2)NC(=O)c2cnn(-c3ccc(F)cc3)n2)CC1 [Example 25, N-[(2S)-3-(3-chlorophenyl)-1-[(1-cyanocyclopropyl)amino]-1-oxopropan-2-yl]-2-(4-fluorophenyl)triazole-4-carboxamide]	1.33

The remaining lines, values ahead:

IC50 [µM]	Compound
16.6	N#CC1(NC(=O)[C@H](Cc2ccc(OC(F)(F)F)c(Cl)c2)NC(c2nnc(-c3ccccc3)o2)C(F)(F)F)CC1 (stereo partly drawn) [Example 22, (2S)-3-(3-chloro-4-(trifluoromethoxy)phenyl)-N-(1-cyanocyclopropyl)-2-(2,2,2-trifluoro-1-(5-phenyl-1,3,4-oxadiazol-2-yl)ethylamino)propanamide]
4.43	Cn1nc(C(C)(C)C)cc1C(=O)N[C@@H](Cc1ccc(OC(F)(F)F)c(Cl)c1)C(=O)NC1(C#N)CC1 [Example 5, (S)-3-tert-butyl-N-(3-(3-chloro-4-(trifluoromethoxy)phenyl)-1-(1-cyanocyclopropylamino)-1-oxopropan-2-yl)-1-methyl-1H-pyrazole-5-carboxamide]
0.278	N#CC1(NC(=O)[C@H](Cc2ccc(OC(F)(F)F)c(Cl)c2)NC(=O)c2cc(-c3ccc(F)cc3)n[nH]2)CC1 [Example 11, (S)—N-(3-(3-chloro-4-(trifluoromethoxy)phenyl)-1-(1-cyanocyclopropylamino)-1-oxopropan-2-yl)-3-(4-fluorophenyl)-1H-pyrazole-5-carboxamide]
0.145	Cc1nn(-c2ccccc2)nc1C(=O)N[C@@H](Cc1ccc(OC(F)(F)F)c(Cl)c1)C(=O)NC1(C#N)CC1 [Example 14, (S)—N-(3-(3-chloro-4-(trifluoromethoxy)phenyl)-1-(1-cyanocyclopropylamino)-1-oxopropan-2-yl)-5-methyl-2-phenyl-2H-1,2,3-triazole-4-carboxamide]
0.067	CSc1ccc(-n2ncc(C(=O)N[C@@H](Cc3ccc(OC(F)(F)F)c(Cl)c3)C(=O)NC3(C#N)CC3)n2)cc1 [Example 23, N-[(2S)-3-[3-chloro-4-(trifluoromethoxy)phenyl]-1-[(1-cyanocyclopropyl)amino]-1-oxopropan-2-yl]-2-(4-methylsulfanylphenyl)triazole-4-carboxamide]
0.013	N#CC1(NC(=O)[C@H](Cc2ccc(OC(F)(F)F)c(Cl)c2)NC(=O)c2cc(-c3ccccc3Cl)n[nH]2)CC1 [Example 10, (S)—N-(3-(3-chloro-4-(trifluoromethoxy)phenyl)-1-(1-cyanocyclopropylamino)-1-oxopropan-2-yl)-3-(2-chlorophenyl)-1H-pyrazole-5-carboxamide]
0.005	Cn1nc(C(F)(F)F)cc1C(=O)N[C@@H](Cc1ccc(OC(F)(F)F)c(Cl)c1)C(=O)NC1(C#N)CC1 [Example 2, (S)—N-(3-(3-chloro-4-(trifluoromethoxy)phenyl)-1-(1-cyanocyclopropylamino)-1-oxopropan-2-yl)-1-methyl-3-(trifluoromethyl)-1H-pyrazole-5-carboxamide]
0.005	N#CC1(NC(=O)[C@H](Cc2ccc(OC(F)(F)F)c(Cl)c2)NC(=O)c2noc(-c3cccc(F)c3)n2)CC1 [Example 15, (S)—N-(3-(3-chloro-4-(trifluoromethoxy)phenyl)-1-(1-cyanocyclopropylamino)-1-oxopropan-2-yl)-5-(3-fluorophenyl)-1,2,4-oxadiazole-3-carboxamide]
0.003	N#CC1(NC(=O)[C@H](Cc2ccc(OC(F)(F)F)c(Cl)c2)NC(=O)c2cc(C(F)(F)F)nn2CC(F)F)CC1 [Example 1, (S)—N-(3-(3-chloro-4-(trifluoromethoxy)phenyl)-1-(1-cyanocyclopropylamino)-1-oxopropan-2-yl)-1-(2,2-difluoroethyl)-3-(trifluoromethyl)-1H-pyrazole-5-carboxamide]

Same assay, conditions: bloodstream forms of T. b. rhodesiense STIB 900, 70 h incubation

Compound	IC50 [µM]
N#CC1(NC(=O)[C@H](Cc2ccc(OC(F)(F)F)c(Cl)c2)NC(c2nnc(-c3ccc(Br)cc3)o2)C(F)(F)F)CC1 (stereo partly drawn) [Example 20, (2S)-2-(1-(5-(4-bromophenyl)-1,3,4-oxadiazol-2-yl)-2,2,2-trifluoroethylamino)-3-(3-chloro-4-(trifluoromethoxy)phenyl)-N-(1-cyanocyclopropyl)propanamide]	16.1

Reference: patent US10377719B2, “Trypanosomes inhibitors” (Hoffmann-La Roche Inc., priority 2015, dated 2019)
